Data as given in ChEMBL document CHEMBL1150244, “Periglaucines A-D, anti-HBV and -HIV-1 alkaloids from Pericampylus glaucus” (J Nat Prod, 2008).

Columns and labels:
[1] = tested on: Human immunodeficiency virus 1; assay: Antiviral activity against HIV1 in human C8166 cells assessed as protection against viral-induced cytopathic effect by syncytium reduction assay; type: functional, organism-based; conditions: Human immunodeficiency virus 1, C8166
[2] = Selectivity index, ratio of CC50 for human HepG2.2.15 cells to IC50 for HBV surface antigen secretion; type: functional
[3] = tested on: Hepatitis B virus; assay: Antiviral activity against HBV assessed as inhibition of viral e-antigen secretion in HepG2.2.15 cells by ELISA; type: functional, organism-based; conditions: HepG2 2.2.15
[4] = tested on: Hepatitis B virus; assay: Antiviral activity against HBV assessed as inhibition of viral surface antigen secretion in HepG2.2.15 cells by ELISA; type: functional, organism-based; conditions: HepG2 2.2.15
[5] = Selectivity index, ratio of CC50 for human C8166 cells to EC50 for HIV1; type: toxicity, cell-based; conditions: read-out: Ratio CC50/EC50
[6] = Selectivity index, ratio of CC50 for human HepG2.2.15 cells to IC50 for HBV e-antigen secretion; type: functional
[7] = Cytotoxicity against human HepG2.2.15 cells by MTT assay; type: cell-based, HepG2 2.2.15
[8] = Cytotoxicity against human C8166 cells after 72 hrs by MTT assay; type: cell-based

EC50 [1] | IC50 [3] | IC50 [4] | Structure (SMILES) | Ratio CC50/IC50 [2] | selectivity ratio [5] | Ratio CC50/IC50 [6] | CC50 [7] | CC50 at 72 h [8]
14.1 µM | > 7470 µM | 140 µM | COc1cc2c(cc1OC)[C@@H]1Cc3ccc(OC)c(OC)c3C(=O)N1CC2 | 22.4 | 18.8 | <1 | 3000 µM | 307 µM
– | > 3400 µM | > 3400 µM | COc1ccc2c(c1OC)C(=O)N1CCc3cc4c(cc3[C@@H]1C2)OCO4 | – | – | – | > 3400 µM | –
10.9 µM | > 3880 µM | 930 µM | COc1c(OC)c2c3c(nccc3c1OC)-c1cc(O)ccc1-2 [IMERUBRINE] | >4.17 | 45.7 | – | > 3880 µM | 493 µM
162 µM | > 3690 µM | 1720 µM | CO[C@@H]1C(=O)C[C@]23CC(=O)N(C)[C@@]24C[C@@H](O[C@]14OC)c1cc2c(cc13)OCO2 [PERIGLAUCINE C] | 1.37 | 3.29 | <1 | 2360 µM | > 516 µM
334 µM | 3010 µM | 670 µM | CO[C@@H]1C(=O)C[C@]23C[C@H](CC(C)=O)N(C)[C@@]24C[C@@H](O[C@]14OC)c1cc2c(cc13)OCO2 [PERIGLAUCINE D] | 3.07 | 1.65 | <1 | 2060 µM | > 466 µM
0.0108 µM | – | – | Cc1cn([C@H]2C[C@H](N=[N+]=[N-])[C@@H](CO)O2)c(=O)[nH]c1=O [ZIDOVUDINE] | – | 471 | – | – | –

Structure (SMILES) | EC50 [1] | IC50 [3] | IC50 [4] | Ratio CC50/IC50 [2] | selectivity ratio [5] | Ratio CC50/IC50 [6] | CC50 [7] | CC50 at 72 h [8]
CO[C@@H]1C(=O)C[C@]23CCN(C)[C@@]24C[C@@H](O[C@]14OC)c1cc2c(cc13)OCO2 [PERIGLAUCINE A] | 204 µM | 3410 µM | 1040 µM | 2.85 | 4.03 | <1 | 2960 µM | > 536 µM
CO[C@H]1C(=O)C[C@]23CCN(C)[C@@]24C[C@@H](O[C@]14OC)c1cc2c(cc13)OCO2 [PERIGLAUCINE B] | 389 µM | 3090 µM | 470 µM | 1.36 | 1.61 | <1 | 640 µM | > 536 µM
